The results in this text go back to patent US20240018161A1, “MODULATORS OF CYSTIC FIBROSIS TRANSMEMBRANE CONDUCTANCE REGULATOR” (VERTEX PHARMACEUTICALS INCORPORATED, priority 2020, published 2024).

The target in data set [1] is CFTR-mediated chloride transport in human intestinal epithelial enteroid cells (Homo sapiens, UniProt P13569). As to the kind of experiment: Membrane potential dye, Enteroid Assay A. It counts as cell-based. Conditions: for EC50: read-out: Ent. A EC50. Put shortly:
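Membrane potential dye (20 μM methyl oxonol, with 30 μM CaCCinh-A01 and 30 μM Chicago Sky Blue) loaded 25 min at room temperature into ROCK-inhibitor-seeded human enteroid cells. Chloride-free stimulation buffer triggered transport, followed by 15 min fluorescence. % Activity relative to 3 μM/3 μM/300 nM triple-combination control.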

[2] abbreviates: enteroid cells incubated with test compound 18-24 hours, acute 10 μM forskolin and 300 nM N-[2,4-bis(1,1-dimethylethyl)-5-hydroxyphenyl]-1,4-dihydro-4-oxoquinoline-3-carboxamide.
The mark [3] stands for this setting: percentage of chloride transport of triple combination control (3 μM N-[(6-amino-2-pyridyl)sulfonyl]-6-(3-fluoro-5-isobutoxy-phenyl)-2-[(4S)-2,2,4-trimethylpyrrolidin-1-yl]pyridine-3-carboxamide based).
The mark [4] stands for this setting: from Cc1cccc(C)c1-c1cc(Cl)nc(NS(=O)(=O)c2cccc(C(=O)N3CCN(C(C)C(C)(C)C)C[C@@H](O)C3)c2)n1, snar bond, 13-membered ring, NaH, DMF, 31.4 mM, 0.0 °C, 7.0 h.
Where [5] appears, read: from Cc1cccc(C)c1-c1cc(OCC2c3ccc(C(C)(C)C)cc3CNC2C)nc(NS(=O)(=O)c2cccc(C(=O)O)c2)n1, amide bond, 14-membered ring, HATU/TEA, DMF, 44.8 mM, 50.0 °C, 0.5 h, 2 steps.

Read-outs that look alike come from different tables or passages of the source.

CFTR-mediated chloride transport in human intestinal epithelial enteroid cells, sequence (P13569 with tags, fused parts or gaps DEL508-508): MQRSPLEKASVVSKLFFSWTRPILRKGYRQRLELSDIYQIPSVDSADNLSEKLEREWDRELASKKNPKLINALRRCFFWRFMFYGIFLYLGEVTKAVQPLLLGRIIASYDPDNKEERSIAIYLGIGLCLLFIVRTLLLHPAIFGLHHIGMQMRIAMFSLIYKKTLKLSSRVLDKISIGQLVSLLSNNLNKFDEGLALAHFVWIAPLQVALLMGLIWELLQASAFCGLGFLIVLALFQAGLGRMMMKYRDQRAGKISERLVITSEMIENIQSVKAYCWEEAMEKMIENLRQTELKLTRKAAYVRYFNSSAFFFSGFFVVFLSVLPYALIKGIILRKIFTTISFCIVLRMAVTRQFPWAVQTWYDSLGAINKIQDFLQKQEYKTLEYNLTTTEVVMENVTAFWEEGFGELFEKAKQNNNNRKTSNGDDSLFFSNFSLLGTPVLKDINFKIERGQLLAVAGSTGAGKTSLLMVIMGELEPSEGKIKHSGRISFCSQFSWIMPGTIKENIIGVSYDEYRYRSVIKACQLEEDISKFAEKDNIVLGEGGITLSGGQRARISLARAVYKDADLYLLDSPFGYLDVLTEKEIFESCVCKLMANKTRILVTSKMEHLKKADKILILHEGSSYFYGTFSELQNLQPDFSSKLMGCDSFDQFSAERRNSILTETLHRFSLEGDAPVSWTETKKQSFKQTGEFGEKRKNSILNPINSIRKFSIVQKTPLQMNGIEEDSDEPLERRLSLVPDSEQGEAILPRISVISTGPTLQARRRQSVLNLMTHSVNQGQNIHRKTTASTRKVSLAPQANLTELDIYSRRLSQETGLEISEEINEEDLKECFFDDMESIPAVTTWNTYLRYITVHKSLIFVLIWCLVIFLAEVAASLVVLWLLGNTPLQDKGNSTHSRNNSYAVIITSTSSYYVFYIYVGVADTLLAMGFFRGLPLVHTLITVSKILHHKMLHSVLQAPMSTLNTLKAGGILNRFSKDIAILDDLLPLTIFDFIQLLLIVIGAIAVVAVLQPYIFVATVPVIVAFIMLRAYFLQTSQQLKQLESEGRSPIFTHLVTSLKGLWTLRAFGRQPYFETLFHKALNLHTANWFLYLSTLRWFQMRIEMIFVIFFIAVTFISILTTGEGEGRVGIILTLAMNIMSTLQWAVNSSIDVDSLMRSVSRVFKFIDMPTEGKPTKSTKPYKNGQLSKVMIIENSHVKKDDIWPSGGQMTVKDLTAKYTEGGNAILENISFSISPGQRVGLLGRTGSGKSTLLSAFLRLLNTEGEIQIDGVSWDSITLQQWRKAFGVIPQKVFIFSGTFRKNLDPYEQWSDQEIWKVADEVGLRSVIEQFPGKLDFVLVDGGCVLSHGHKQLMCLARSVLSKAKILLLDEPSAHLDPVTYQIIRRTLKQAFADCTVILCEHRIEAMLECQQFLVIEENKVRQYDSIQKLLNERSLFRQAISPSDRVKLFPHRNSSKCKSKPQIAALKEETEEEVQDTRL

Regarding `Cc1cccc(C)c1-c1cc2nc(n1)NS(=O)(=O)c1cccc(c1)C(=O)N1Cc3cc(C(C)(C)C)ccc3[C@H](O2)[C@H]1CC(C)(C)C`, the ring closure, yield after HPLC (from Cc1cccc(C)c1-c1cc(O[C@H]2c3ccc(C(C)(C)C)cc3CN[C@@H]2CC(C)(C)C)nc(NS(=O)(=O)c2cccc(C(=O)O)c2)n1, amide bond, 13-membered ring, HATU/NaOtBu, DMF/THF, 0.25 h, 2 steps) amounted to 3%.

`Cc1cccc(C)c1-c1cc2nc(n1)NS(=O)(=O)c1cccc(c1)C(=O)N1Cc3cc(C(F)(F)F)ccc3[C@@H](O2)[C@H]1CC(C)C` gave a ring closure, yield after HPLC (from Cc1cccc(C)c1-c1cc(O[C@@H]2c3ccc(C(F)(F)F)cc3CN[C@@H]2CC(C)C)nc(NS(=O)(=O)c2cccc(C(=O)O)c2)n1, amide bond, 13-membered ring, HATU/NaOtBu, DMF/THF, 0.25 h, 3 steps) of 3%.

For `Cc1cccc(C)c1-c1cc2nc(n1)NS(=O)(=O)c1cccc(c1)C(=O)N1Cc3cc(C(F)(F)F)ccc3[C@H](O2)[C@H]1CC(C)C`, the ring closure, yield after HPLC (from Cc1cccc(C)c1-c1cc(O[C@H]2c3ccc(C(F)(F)F)cc3CN[C@@H]2CC(C)C)nc(NS(=O)(=O)c2cccc(C(=O)O)c2)n1, amide bond, 13-membered ring, HATU/NaOtBu, DMF/THF, 0.25 h, 3 steps) stood at 5%.

For `Cc1ccccc1-c1cc2nc(n1)NS(=O)(=O)c1cccc(c1)C(=O)N1Cc3ccccc3[C@H](O2)[C@H]1CC(C)C`, where the note is “from Cc1ccccc1-c1cc(O[C@H]2c3ccccc3CN[C@@H]2CC(C)C)nc(NS(=O)(=O)c2cccc(C(=O)O)c2)n1, amide bond, 13-membered ring, HATU/DIEA, DMF, 190.0 mM, 0.5 h, 3 steps”, the ring closure, yield after HPLC stood at 18%.

In the case of “12-(2,6-dimethylphenyl)-23-(2-methylpropyl)-15-oxa-8λ^6-thia-1,9,11,25-tetraazapentacyclo[14.7.1.13,7.110,14.017,22]hexacosa-3(26),4,6,10(25),11,13,17,19,21-nonaene-2,8,8-trione, major diastereomer”, the ring closure, yield after HPLC (amide bond, 13-membered ring, HATU/DIEA, DMF, 115.0 mM) amounted to 53%.

The EC50 is the concentration giving half of the maximal effect. For `Cc1cccc(C)c1-c1cc2nc(n1)NS(=O)(=O)c1cccc(c1)C(=O)N1Cc3cccnc3C(C1)O2` (single isomer, unassigned) [Compound 195, 12-(2,6-dimethylphenyl)-15-oxa-8λ^6-thia-1,9,11,18,25-pentaazapentacyclo[14.7.1.13,7.110,14.017,22]hexacosa-3,5,7(26),10(25),11,13,17,19,21-nonaene-2,8,8-trione], the ring closure, yield after HPLC (from Cc1cccc(C)c1-c1cc(OC2CNCc3cccnc32)nc(NS(=O)(=O)c2cccc(C(=O)O)c2)n1, amide bond, 13-membered ring, HATU/DIEA, DMF, 8.0 mM, 1.0 h) came to 76%. For the same compound, in data set [1] (setting [2]), the EC50 lay within 3000 to 30000 nM. In addition, in data set [1] (setting [3]), the “Ent. A Max Activity (%)” value is recorded as “++ (++ is 30-60%)”.

For `Cc1cccc(C)c1-c1cc2nc(n1)NS(=O)(=O)c1cccc(c1)C(=O)N1CC(CC(c3ccccc3)C1)O2` (single isomer, unassigned; diastereomer 1), the ring closure, yield after HPLC (from 3-[[4-(2,6-dimethylphenyl)-6-[(5-phenyl-3-piperidyl)oxy]pyrimidin-2-yl]sulfamoyl]benzoic acid (hydrochloride salt), diastereomer 1, amide bond, 13-membered ring, HATU/DIEA, DMF, 37.8 mM, 25.0 °C, 3 steps) came out at 1%.

As for `Cc1cccc(C)c1-c1cc2nc(n1)NS(=O)(=O)c1cccc(c1)C(=O)N1CC(O2)C2CCCN(C)C2C1` (single isomer, unassigned; diastereomer 1), for the setting “from Cc1cccc(C)c1-c1cc(OC2CNCC3C2CCCN3C)nc(NS(=O)(=O)c2cccc(C(=O)O)c2)n1, amide bond, 13-membered ring, HATU/DIEA, DMF, 20.5 mM, 25.0 °C, 1.0 h”, the ring closure, yield after HPLC came out at 54%.

Under setting [4], `Cc1cccc(C)c1-c1cc2nc(n1)NS(=O)(=O)c1cccc(c1)C(=O)N1CCN(C(C)C(C)(C)C)C[C@H](C1)O2` (single isomer, unassigned; diastereomer 1) had a ring closure, yield after HPLC of 36%.

Take `Cc1cccc(C)c1-c1cc2nc(n1)NS(=O)(=O)c1cccc(c1)C(=O)N1CC(CC(c3ccccc3)C1)O2` (single isomer, unassigned; diastereomer 2): the ring closure, yield after HPLC (from 3-[[4-(2,6-dimethylphenyl)-6-[(5-phenyl-3-piperidyl)oxy]pyrimidin-2-yl]sulfamoyl]benzoic acid (hydrochloride salt), diastereomer 2, amide bond, 13-membered ring, HATU/DIEA, DMF, 61.9 mM, 25.0 °C, 3 steps) was found to be 31%.

`Cc1cccc(C)c1-c1cc2nc(n1)NS(=O)(=O)c1cccc(c1)C(=O)N1CCN(C(=O)OCc3ccccc3)CC(O2)[C@H]1C` (single isomer, unassigned; diastereomer 2) returned a ring closure, yield after HPLC (from Cc1cccc(C)c1-c1cc(Cl)nc(NS(=O)(=O)c2cccc(C(=O)N3CCN(C(=O)OCc4ccccc4)CC(O)[C@H]3C)c2)n1, snar bond, 13-membered ring, NaH, DMF, 30.1 mM, 0.0 °C, 1.5 h) of 7%.

`Cc1cccc(C)c1-c1cc2nc(n1)NS(=O)(=O)c1cccc(c1)C(=O)N1CCN(C(C)C(C)(C)C)C[C@H](C1)O2` (single isomer, unassigned; diastereomer 2): the ring closure, yield after HPLC under setting [4] worked out at 33%.

Compound `Cc1cccc(C)c1-c1cc2nc(n1)NS(=O)(=O)c1cccc(c1)C(=O)N1Cc3cc(C(C)(C)C)ccc3C(CO2)C1C` (single isomer, unassigned; enantiomer 1) registered a ring closure, yield after HPLC under setting [5] of 2%.

In the case of `Cc1cccc(C)c1-c1cc2nc(n1)NS(=O)(=O)c1cccc(c1)C(=O)N1Cc3cc(C(C)(C)C)ccc3C(CO2)C1C` (single isomer, unassigned; enantiomer 2), under setting [5], the ring closure, yield after HPLC was found to be 1%.

On to `Cc1cccc(C)c1-c1cc2nc(n1)NS(=O)(=O)c1cccc(n1)C(=O)N1CCN(CCC(C)(C)C)CC(C1)O2` (stereo not shown) [Compound 70, 18-(3,3-Dimethylbutyl)-12-(2,6-dimethylphenyl)-15-oxa-8λ^6-thia-1,9,11,18,22,23-hexaazatetracyclo[14.4.1.13,7.110,14]tricosa-3,5,7(23),10,12,14(22)-hexaene-2,8,8-trione], for which the ring closure, yield after HPLC (from Cc1cccc(C)c1-c1cc(OC2CNCCN(CCC(C)(C)C)C2)nc(NS(=O)(=O)c2cccc(C(=O)O)n2)n1, amide bond, 13-membered ring, HATU/DIEA, DMF, 78.0 mM, 25.0 °C, 0.5 h, 2 steps) came out at 1%. Further, in data set [1] (Enteroid Assay A), the “Ent. A Max Activity (%)” value was “+ (+ is <30%)”.

`Cc1cccc(C)c1-c1cc2nc(n1)NS(=O)(=O)c1cccc(c1)C(=O)N1CCN(C(C)(C)C)C[C@H](C1)O2` [Compound 71, (16R)-18-tert-Butyl-12-(2,6-dimethylphenyl)-15-oxa-8λ^6-thia-1,9,11,18,22-pentaazatetracyclo[14.4.1.13,7.110,14]tricosa-3(23),4,6,10(22),11,13-hexaene-2,8,8-trione] displayed a ring closure, yield after HPLC (from Cc1cccc(C)c1-c1cc(Cl)nc(NS(=O)(=O)c2cccc(C(=O)N3CCN(C(C)(C)C)C[C@@H](O)C3)c2)n1, snar bond, 13-membered ring, NaH, DMF, 33.9 mM, 25.0 °C, 4.17 h) of 37%. For the same compound, in data set [1] (Enteroid Assay A), the “Ent. A Max Activity (%)” value is listed as “+++ (+++ is >600%)” and the EC50 was < 1000 nM.

With `Cc1cccc(C)c1-c1cc2nc(n1)NS(=O)(=O)c1cccc(c1)C(=O)N1CC(CN(Cc3ccccc3)[C@@H](CC(C)C)C1)O2` (stereo partly drawn) [Compound 107, (19S)-18-Benzyl-12-(2,6-dimethylphenyl)-19-(2-methylpropyl)-15-oxa-8λ^6-thia-1,9,11,18,22-pentaazatetracyclo[14.4.1.13,7.110,14]tricosa-3(23),4,6,10(22),11,13-hexaene-2,8,8-trione], the ring closure, yield after HPLC (from Cc1cccc(C)c1-c1cc(Cl)nc(NS(=O)(=O)c2cccc(C(=O)N3CC(O)CN(Cc4ccccc4)[C@@H](CC(C)C)C3)c2)n1, snar bond, 13-membered ring, NaH, DMF, 29.1 mM, 0.0 °C, 4.0 h) was 3%. In data set [1] (Enteroid Assay A), the “Ent. A Max Activity (%)” value is on record as “+++ (+++ is >600%)” and the EC50 is < 1000 nM.

The compound `Cc1cccc(C)c1-c1cc2nc(n1)NS(=O)(=O)c1cccc(c1)NC(=O)CN1CCCC(C1)O2` (stereo not shown) [Compound 160, 5-(2,6-Dimethylphenyl)-2-oxa-9λ^6-thia-6,8,15,18,24-pentaazatetracyclo[16.3.1.13,7.110,14]tetracosa-3(24),4,6,10,12,14(23)-hexaene-9,9,16-trione] displayed a ring closure, yield after HPLC (from Cc1cccc(C)c1-c1cc(OC2CCCN(CC(=O)Nc3cccc(S(N)(=O)=O)c3)C2)nc(Cl)n1, cn_pd bond, 15-membered ring, Pd(OAc)2/Xantphos/Cs2CO3, dioxane, 20.1 mM, 100.0 °C, 16.0 h) of 17%. For the same compound, the EC50 in data set [1] (setting [2]) lay within 1000 to 3000 nM. In addition, the “Ent. A Max Activity (%)” value in data set [1] (setting [3]) is given as “+ (+ is <300%)”.

Compound `Cc1cccc(C)c1-c1cc2nc(n1)NS(=O)(=O)c1cccc(c1)C(=O)N1CCN(CCC3(C(F)(F)F)CC3)CC1CO2` (stereo not shown) [Compound 170, 13-(2,6-Dimethylphenyl)-6-{2-[1-(trifluoromethyl)cyclopropyl]ethyl}-10-oxa-17λ^6-thia-3,6,14,16,23-pentaazatetracyclo[16.3.1.111,15.03,8]tricosa-1(22),11,13,15(23),18,20-hexaene-2,17,17-trione] had a ring closure, yield after HPLC (from Cc1cccc(C)c1-c1cc(OCC2CN(CCC3(C(F)(F)F)CC3)CCN2)nc(NS(=O)(=O)c2cccc(C(=O)O)c2)n1, amide bond, 13-membered ring, HATU/DIEA, DMF, 18.7 mM, 25.0 °C, 1.0 h, 3 steps) of 14%. Further, in data set [1] (setting [2]), the EC50 is < 1000 nM. For the same compound, the “Ent. A Max Activity (%)” value in data set [1] (setting [3]) was “++ (++ is 30-60%)”.

Under “from Cc1cccc(C)c1-c1cc(O[C@@H]2CCNC2)nc(NS(=O)(=O)c2cccc(C(=O)O)c2)n1, amide bond, 13-membered ring, HATU/TEA, DMF, 56.8 mM, 25.0 °C, 1.0 h”, `Cc1cccc(C)c1-c1cc2nc(n1)NS(=O)(=O)c1cccc(c1)C(=O)N1CC[C@H](C1)O2` [Compound 214, (3R)-17-(2,6-Dimethylphenyl)-2-oxa-13λ^6-thia-6,14,16,19-tetraazatetracyclo[13.3.1.13,6.18,12]henicosa-1(19),8(20),9,11,15,17-hexaene-7,13,13-trione] gave a ring closure, yield after HPLC of 17%.
